#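 A five-concentration, 48-hour dose response in 96-well plates underlies each endpoint, interpolated linearly between surrounding concentrations. TGI is the concentration that stops growth completely.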
# Columns and labels:
# Assay in all cases: growth of human tumour cells (NCI), 48 h
# MDA-MB-231 breast = test system: MDA-MB-231 breast
# UACC-257 melanoma = test system: UACC-257 melanoma
# CCRF-CEM leukemia = test system: CCRF-CEM leukemia
# BT-549 breast = test system: BT-549 breast
# OVCAR-5 ovarian = test system: OVCAR-5 ovarian
# NCI-H23 lung = test system: NCI-H23 lung
# SF-539 CNS = test system: SF-539 CNS
# OVCAR-8 ovarian = test system: OVCAR-8 ovarian
# MALME-3M melanoma = test system: MALME-3M melanoma
# SNB-19 CNS = test system: SNB-19 CNS
# HS 578T breast = test system: HS 578T breast
# NCI/ADR-RES ovarian = test system: NCI/ADR-RES ovarian
# DU-145 prostate = test system: DU-145 prostate
# HCT-116 colon = test system: HCT-116 colon
# LOX IMVI melanoma = test system: LOX IMVI melanoma
# ACHN renal = test system: ACHN renal
# UO-31 renal = test system: UO-31 renal
# K-562 leukemia = test system: K-562 leukemia
# OVCAR-3 ovarian = test system: OVCAR-3 ovarian
# SF-268 CNS = test system: SF-268 CNS
SMILES,TGI (MDA-MB-231 breast),TGI (UACC-257 melanoma),TGI (CCRF-CEM leukemia),TGI (BT-549 breast),TGI (OVCAR-5 ovarian),TGI (NCI-H23 lung),TGI (SF-539 CNS),TGI (OVCAR-8 ovarian),TGI (MALME-3M melanoma),TGI (SNB-19 CNS),TGI (HS 578T breast),TGI (NCI/ADR-RES ovarian),TGI (DU-145 prostate),TGI (HCT-116 colon),TGI (LOX IMVI melanoma),TGI (ACHN renal),TGI (UO-31 renal),TGI (K-562 leukemia),TGI (OVCAR-3 ovarian),TGI (SF-268 CNS)
C/C(=N\NS(=O)(=O)c1ccc(C)cc1)c1ccccn1,> 100 µM,> 100 µM,78.9 µM,> 100 µM,> 100 µM,> 100 µM,> 100 µM,> 100 µM,> 100 µM,> 100 µM,> 100 µM,> 100 µM,> 100 µM,> 100 µM,> 100 µM,83.3 µM,> 100 µM,> 100 µM,> 100 µM,> 100 µM
NC(N)=NS(=O)(=O)c1ccc(NNc2c3ccccc3nc3ccccc23)cc1,37 µM,46.1 µM,25.4 µM,28.5 µM,48.2 µM,36.4 µM,36.7 µM,31.1 µM,32.8 µM,37.3 µM,93.6 µM,90.7 µM,21.3 µM,32.8 µM,18.2 µM,23.1 µM,66.7 µM,30.9 µM,15.7 µM,34 µM
Cc1ccc(C(=O)N/N=C(\N=Nc2cccc([N+](=O)[O-])c2)c2ccc(N(CCC#N)CCC#N)cc2C)cc1,> 79.2 µM,52.7 µM,> 69.2 µM,> 78.5 µM,> 100 µM,> 82.8 µM,58.7 µM,> 91.6 µM,18.4 µM,> 100 µM,> 88.3 µM,> 95.4 µM,> 100 µM,> 74.8 µM,> 100 µM,> 100 µM,> 100 µM,> 100 µM,6.71 µM,> 100 µM
O=C1OC(CCCN2CCCCC2)(c2ccccc2)CC12CCCC2 (stereo not given),> 100 µM,48.7 µM,> 100 µM,> 100 µM,> 100 µM,> 100 µM,> 92.1 µM,> 100 µM,55.7 µM,> 100 µM,> 100 µM,> 100 µM,> 100 µM,> 100 µM,> 100 µM,> 100 µM,> 100 µM,> 96.3 µM,> 100 µM,> 100 µM
O=C(O)c1c2c(cc3c1CC(Cc1ccccc1)C3=O)CCC2 (stereo not given),> 100 µM,> 100 µM,> 100 µM,> 100 µM,> 100 µM,> 100 µM,> 100 µM,> 100 µM,> 100 µM,> 100 µM,> 100 µM,> 100 µM,> 100 µM,> 100 µM,> 100 µM,> 100 µM,30.5 µM,> 100 µM,> 100 µM,> 100 µM
C=CCCON(C(=O)OC(C)(C)C)c1ccccc1,> 100 µM,> 100 µM,> 100 µM,> 100 µM,> 100 µM,> 100 µM,> 100 µM,> 100 µM,> 100 µM,> 100 µM,> 100 µM,> 100 µM,> 100 µM,> 100 µM,> 100 µM,> 100 µM,> 100 µM,> 100 µM,> 100 µM,> 100 µM
Nc1ccccc1CCN1CCN(CCCc2ccccc2)CC1,> 100 µM,> 100 µM,> 100 µM,> 100 µM,> 100 µM,> 100 µM,> 100 µM,> 100 µM,31.6 µM,> 100 µM,> 100 µM,> 100 µM,> 100 µM,> 100 µM,> 100 µM,> 100 µM,> 100 µM,> 100 µM,> 100 µM,> 100 µM
CCOC(=O)CCC(NC(=O)c1ccc(Nc2nc3ccc(C(F)(F)F)cc3nc2-c2ccccc2)cc1)C(=O)OCC (stereo not given),58.9 µM,35.3 µM,> 100 µM,> 100 µM,> 100 µM,> 100 µM,> 100 µM,> 100 µM,76.8 µM,> 100 µM,85.1 µM,> 100 µM,> 100 µM,> 100 µM,> 64.2 µM,> 100 µM,> 87.2 µM,> 100 µM,76 µM,> 100 µM
CC1(C)N/C(=C\[N+](=O)[O-])C(C)(C)N1O,> 10 µM,> 10 µM,> 10 µM,> 10 µM,> 10 µM,> 10 µM,> 10 µM,> 10 µM,> 10 µM,> 10 µM,> 10 µM,> 10 µM,> 10 µM,> 10 µM,> 10 µM,> 10 µM,–,–,> 10 µM,> 10 µM
O=C(NC1=C(Cl)C(=O)c2ccccc2C1=O)c1ccccc1,> 100 µM,–,> 100 µM,44.4 µM,> 100 µM,71.7 µM,> 100 µM,> 100 µM,31.3 µM,> 100 µM,> 100 µM,39.1 µM,> 100 µM,32.2 µM,–,40 µM,–,54.3 µM,42.7 µM,> 100 µM
COC(=O)C1Cc2cc3c(cc2C1=O)CCC3 (stereo not given),> 100 µM,> 100 µM,> 100 µM,> 100 µM,> 100 µM,> 100 µM,> 100 µM,> 100 µM,> 100 µM,> 100 µM,> 100 µM,> 100 µM,> 100 µM,> 100 µM,> 100 µM,> 100 µM,> 100 µM,> 100 µM,> 100 µM,> 100 µM
Cc1cc(C)c2c(=O)cc(-c3cccc4ccccc34)[nH]c2n1,18.6 µM,–,> 100 µM,> 100 µM,> 100 µM,> 61.6 µM,> 19.9 µM,7.38 µM,3.29 µM,> 51.8 µM,> 100 µM,> 25.9 µM,> 100 µM,> 100 µM,26.4 µM,> 100 µM,> 100 µM,> 100 µM,–,> 48 µM
O=C1/C(=C\c2ccc([N+](=O)[O-])cc2)N(S(=O)(=O)c2ccccc2)c2ncccc21,38.4 µM,42.8 µM,> 100 µM,32.7 µM,–,42.1 µM,55.5 µM,70.2 µM,33 µM,65 µM,81.3 µM,63.3 µM,75.4 µM,43.1 µM,47.5 µM,31.4 µM,38.2 µM,> 100 µM,31.3 µM,70.7 µM
COC(=O)c1csc([C@@H](OC(=O)[C@H](C)[C@H](CCCC(C)(Cl)Cl)OC(=O)c2csc([C@H](O)CO)n2)C(C)C)n1,36.1 µM,23.1 µM,34.8 µM,31 µM,29 µM,30.9 µM,8.62 µM,22.4 µM,34.3 µM,26.8 µM,6.65 µM,45.4 µM,24.8 µM,–,23.5 µM,25.8 µM,19.9 µM,33.6 µM,30.8 µM,34.8 µM
CC(=O)OCC1OC(N2C(C)=C(C(C)=O)C(c3ccc(Cl)cc3)C(C#N)=C2S)C(OC(C)=O)C(OC(C)=O)C1OC(C)=O (stereo not given),> 100 µM,> 100 µM,> 100 µM,> 100 µM,> 100 µM,–,> 100 µM,> 100 µM,> 100 µM,> 100 µM,> 100 µM,> 100 µM,> 100 µM,> 100 µM,> 100 µM,> 100 µM,88.8 µM,> 100 µM,> 100 µM,> 100 µM
COc1ccc(/C=C2\N=C(N3CCCCC3)NC2=O)cc1,> 100 µM,> 100 µM,> 100 µM,> 100 µM,> 100 µM,> 100 µM,> 100 µM,> 100 µM,> 100 µM,> 100 µM,> 100 µM,> 100 µM,> 100 µM,> 100 µM,> 100 µM,> 100 µM,> 100 µM,–,> 100 µM,> 100 µM
C=CCn1c(N)c(C#N)c(C#N)c1CCC,> 100 µM,> 100 µM,> 100 µM,> 100 µM,> 100 µM,> 100 µM,> 100 µM,> 100 µM,> 100 µM,> 100 µM,> 100 µM,> 100 µM,> 100 µM,–,> 100 µM,> 100 µM,> 100 µM,> 100 µM,> 100 µM,> 100 µM
O=C1NC(=S)N/C1=C\c1cccs1,> 100 µM,–,> 100 µM,> 100 µM,> 100 µM,> 100 µM,> 100 µM,> 100 µM,> 100 µM,> 100 µM,> 100 µM,> 100 µM,> 100 µM,> 100 µM,> 100 µM,–,> 100 µM,> 100 µM,> 100 µM,> 100 µM
C#CCn1c(=O)c(I)cn(/C(=C/C(=O)OCC)C(=O)OCC)c1=O,29.5 µM,8.11 µM,> 57.7 µM,26.2 µM,31.1 µM,45.5 µM,12.3 µM,19.1 µM,4.27 µM,34.5 µM,> 100 µM,> 84 µM,23.9 µM,3.59 µM,> 48.5 µM,3.27 µM,2.86 µM,–,3.37 µM,35.1 µM

# Source: PubChem BioAssay (NCI)
